Test results as given in the supplement of paper PMC10307832.

Key:
Assay in all cases: relative viability (nuclei count vs DMSO), 5 days (fraction); higher = more cells survive
NCI-H1648 = test system: NCI-H1648
How it was run: (§1)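 Nuclei were stained with Hoechst during a one-step fixation (final 0.05% Triton X-100, 1% formaldehyde, 1 ug/ml Hoechst) carried out 5 days after dosing, then counted on 4× images. The cells, lung cancer lines in 1536-well plates, had been dosed by pin tool the day after seeding with one drug alone or a fixed anchor-drug dose plus five library-drug doses (not always all listed) in √10 steps. Relative viability is the nuclei count in treated wells divided by that in vehicle wells, and each value is the median of duplicate plates.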

NCI-H1623 = test system: NCI-H1623
How it was run: as §1

NCI-H522 = test system: NCI-H522
How it was run: as §1

NCI-H1651 = test system: NCI-H1651
How it was run: as §1

NCI-H520 = test system: NCI-H520
How it was run: as §1

RERF-LC-KJ = test system: RERF-LC-KJ
How it was run: as §1

SMILES	relative viability (NCI-H1648; first compound 0.005 µM)	relative viability (NCI-H1648; first compound 0.01581 µM)	relative viability (NCI-H1648; first compound 0.1581 µM)	relative viability (NCI-H1648; first compound 0.5 µM)	relative viability (NCI-H1623; first compound 0.005 µM)	relative viability (NCI-H1623; first compound 0.01581 µM)	relative viability (NCI-H1623; first compound 0.05 µM)	relative viability (NCI-H1623; first compound 0.1581 µM)	relative viability (NCI-H1623; first compound 0.5 µM)	relative viability (NCI-H522; first compound 0.005 µM)	relative viability (NCI-H522; first compound 0.01581 µM)	relative viability (NCI-H522; first compound 0.05 µM)	relative viability (NCI-H522; first compound 0.1581 µM)	relative viability (NCI-H522; first compound 0.5 µM)	relative viability (NCI-H1651; first compound 0.005 µM)	relative viability (NCI-H1651; first compound 0.01581 µM)	relative viability (NCI-H1651; first compound 0.05 µM)	relative viability (NCI-H1651; first compound 0.1581 µM)	relative viability (NCI-H1651; first compound 0.5 µM)	relative viability (NCI-H520; first compound 0.01581 µM)	relative viability (NCI-H520; first compound 0.05 µM)	relative viability (NCI-H520; first compound 0.1581 µM)	relative viability (NCI-H520; first compound 0.5 µM)	relative viability (RERF-LC-KJ; first compound 0.005 µM)	relative viability (RERF-LC-KJ; first compound 0.01581 µM)	relative viability (RERF-LC-KJ; first compound 0.05 µM)	relative viability (RERF-LC-KJ; first compound 0.1581 µM)	relative viability (RERF-LC-KJ; first compound 0.5 µM)	relative viability (NCI-H520; first compound 0.005 µM)
CC1(C)CCC(c2ccc(Cl)cc2)=C(CN2CCN(c3ccc(C(=O)NS(=O)(=O)c4ccc(N[C@H](CCN5CCOCC5)CSc5ccccc5)c(S(=O)(=O)C(F)(F)F)c4)cc3)CC2)C1 [Navitoclax] + COc1cccc2cc(-c3nc([C@H]4CC[C@H](C(=O)O)CC4)n4ncnc(N)c34)[nH]c12 [OSI-027] (partner 0.5 µM)	0.257	0.256	0.253	0.306	0.419	0.376	0.369	0.439	0.373	0.605	0.705	0.702	0.685	0.747	0.685	0.795	0.813	0.782	0.721	0.231	0.318	0.201	0.31	0.568	0.633	0.498	0.599	0.616	–
CC1(C)CCC(c2ccc(Cl)cc2)=C(CN2CCN(c3ccc(C(=O)NS(=O)(=O)c4ccc(N[C@H](CCN5CCOCC5)CSc5ccccc5)c(S(=O)(=O)C(F)(F)F)c4)cc3)CC2)C1 [Navitoclax] + Cc1cc(Nc2cc(N3CCN(C)CC3)nc(Sc3ccc(NC(=O)C4CC4)cc3)n2)n[nH]1 [Tozasertib] (partner 0.1 µM)	0.609	0.506	0.459	0.575	0.406	0.405	0.415	0.464	0.4	0.574	0.535	0.607	0.631	0.669	0.586	0.686	0.493	0.62	0.66	0.408	0.419	0.376	0.392	0.507	0.369	0.536	0.526	0.464	0.511
